Consider 18 compounds from patent publication US10413545B2, “Imidazolin-5-one derivative useful as FASN inhibitors for the treatment of cancer” (Janssen Pharmaceutica NV, priority 2013, dated 2019).

Read-outs that look alike come from different tables or passages of the source.

Common to all, as to format: cell-based
One assay concerns A2780 ovarian cells. Briefly: A2780 Ovarian Cell Proliferation Assay in Lipid Reduced Medium, with and without Palmitate (MTT). As to conditions: Homo sapiens, 10% lipid-reduced serum, 96 h.
In assay [1] the test system is PC-3M-Luc-C6 prostate cells. The assay is described as follows: In Vitro PC-3M-Luc-C6 Prostate Cell Proliferation Assay in Lipid Reduced Medium. The following applies: Prostate cell, read-out: pIC50 PC-3M-Luc-C6 prostate cell (converted); 10% lipid reduced serum, 96 h, ATP-glow luminescence. The procedure:
PC-3M-Luc-C6 prostate cells were obtained from Xenogen Corporation. Cells were maintained in MEM supplemented with 10% Fetal Calf Serum (FCS, Hyclone), 2 mM glutamine, 1 mM sodium pyruvate, 1% BME vitamins (available from for example, Sigma Aldrich), 0.1 mM non Essential Amino Acid and 50 μg/ml Gentamicin. The cells were passaged twice a week.
The next day 10 μl test compound/DMSO diluted in medium was added (3E-5M, 1E-5M, 3E-6M,1E-6M, 3E-7M, 1E-7M, 3E-8M, 1E-8M final concentration). Compounds were tested in duplicate. After 96 h incubation at 37° C., 5% CO2 25 μl ATP-glow mix was added. The plate was incubated for 30 min at 37° C. and luminescence was measured with the Envision.
(§1) Analysis: Determination of pIC50 Values
(§2) pIC50 values were calculated as follows. Raw data generated by the instruments were normalized to % Controlmin values, which were calculated as: % Controlmin=100*(x−mLC)/(mHC−mLC),
(§3) where mLC and mHC are the means of the low control wells and high control wells on the plate, after manual exclusion of outliers. The relation between the % Controlmin values and concentration was fitted to a 4-parameter logistic curve using a non-linear least squares regression method to determine the pIC50 value. Outlying data points were excluded manually to get a correct fit. The pIC50 corresponds to −log 10(IC50), if the IC50 is expressed in molar units (http://www.ncbi.nlm.nih.qovibooks/NBK91994). The IC50 parameter was always determined by non-linear regression, but one or more of the other parameters may have been held fixed on a relevant input value, such as 0 for the bottom values.

For assay [2], the system named is LNCaP_Vancouver prostate cells. The assay is described as follows: In Vitro LNCaP Vancouver Prostate Cell Proliferation Assay in Lipid Reduced Medium. As to conditions: Prostate cell; 10% lipid reduced serum, 96 h, ATP-glow luminescence; read-out: pIC50 LNCaP_Vancouver prostate cell (converted). The procedure:
LNCaP_Vancouver prostate cells were obtained from the Vancouver Prostate Cancer Centre.
The next day 10 μl of test compound/DMSO diluted in medium was added (3E-5M, 1E-5M, 3E-6M,1E-6M, 3E-7M, 1E-7M, 3E-8M, 1E-8M final concentration). Compounds were tested in duplicate. After 96 h incubation at 37° C., 5% CO2 25 μl ATP-glow mix was added. The plate was incubated for 30 min at 37° C. and luminescence was measured with the Envision.
as §1, §2, §3

Setting [3] is: 25 μM palmitate added (control), read-out: pIC50 With Palmitate (converted).
The mark [4] stands for this setting: no palmitate, read-out: pIC50 Without Palmitate (converted).

Take `Cn1cc(-c2ccc(-c3ccc(C4=NC(C)(C)C(=O)N4C[C@@H]4CCN(C(=O)C5CC5)C4)cc3)cc2)cn1` [Compound 16, (R)-1-((1-(cyclopropanecarbonyl)pyrrolidin-3-yl)methyl)-4,4-dimethyl-2-(4′-(1-methyl-1H-pyrazol-4-yl)-[1,1′-biphenyl]-4-yl)-1H-imidazol-5(4H)-one]: the IC50 is greater than 10000 nM in the assay on A2780 ovarian cells (setting [3]), 186 nM in the assay with A2780 ovarian cells (setting [4]), 174 nM in assay [1] and 331 nM in assay [2].

`CC1(c2ccccc2)N=C(c2ccc(-c3ccc4[nH]ccc4c3)cc2)N(C[C@@H]2CCN(C(=O)C3CC3)C2)C1=O` (mixture of isomers) [Compound 7, (4RS)-2-(4-(1H-Indol-5-yl)phenyl)-1-(((R)-1-(cyclopropanecarbonyl)pyrrolidin-3-yl)methyl)-4-methyl-4-phenyl-1H-imidazol-5(4H)-one]: the IC50 is greater than 10000 nM in the assay on A2780 ovarian cells (setting [3]), 132 nM with A2780 ovarian cells (setting [4]), 74.1 nM in assay [1] and 234 nM in assay [2].

As for `Cn1cc(-c2ccc(-c3ccc(C4=NC(C)(C)C(=O)N4C[C@@H]4CCN(C(=O)C5CC5)C4)c(F)c3)cc2)cn1` [Compound 45], the IC50 with A2780 ovarian cells (setting [3]) was greater than 10000 nM; in the assay on A2780 ovarian cells (setting [4]), 26.3 nM; in assay [1], 67.6 nM; in assay [2], 117 nM.

In the case of `CC1(C)N=C(c2ccc(-c3ccc(-c4ccncc4)cc3)cc2)N(C[C@@H]2CCN(C(=O)C3CC3)C2)C1=O` [Compound 15, (R)-1-((1-(cyclopropanecarbonyl)pyrrolidin-3-1)methyl)-4,4-dimethyl-2-(4′-(pyridin-4-yl)-[1,1′-biphenyl]-4-yl)-1H-imidazol-5(4H)-one], the IC50 is greater than 10000 nM in the assay with A2780 ovarian cells (setting [3]), 178 nM in the assay with A2780 ovarian cells (setting [4]), 158 nM in assay [1] and 759 nM in assay [2].

`Cn1ncc2cc(-c3ccc(C4=NC(C)(c5ccccc5)C(=O)N4C[C@@H]4CCN(C(=O)C5CC5)C4)cc3)ccc21` (mixture of isomers) [Compound 6, (4RS)-1-(((R)-1-(cyclopropanecarbonyl)pyrrolidin-3-yl)methyl)-4-methyl-2-(4-(1-methyl-1H-indazol-5-yl)phenyl)-4-phenyl-1H-imidazol-5(4H)-one]: the IC50 was greater than 10000 nM with A2780 ovarian cells (setting [3]), 363 nM in the assay with A2780 ovarian cells (setting [4]), 501 nM in assay [1] and 1820 nM in assay [2].

Regarding `CC1(C)N=C(c2ccc(-c3ccc4cccc(F)c4c3)cc2)N(C[C@@H]2CCN(C(=O)C3CC3)C2)C1=O` [Compound 41, (R)-1-((1-(cyclopropanecarbonyl)pyrrolidin-3-yl)methyl)-2-(4-(8-fluoronaphthalen-2-yl)phenyl)-4,4-dimethyl-1H-imidazol-5(4H)-one], the IC50 with A2780 ovarian cells (setting [3]) was greater than 10000 nM; in the assay on A2780 ovarian cells (setting [4]), roughly 347 nM; in assay [1], 417 nM; in assay [2], 1150 nM.

In the case of `CC1(c2ccccc2)N=C(c2ccc(-c3ccc4occc4c3)cc2)N(C[C@@H]2CCN(C(=O)C3CC3)C2)C1=O` (mixture of isomers) [Compound 5, (4RS)-2-(4-(Benzofuran-5-yl)phenyl)-1-(((R)-1-(cyclopropanecarbonyl)pyrrolidin-3-yl)methyl)-4-methyl-4-phenyl-1H-imidazol-5(4H)-one], the IC50 was greater than 10000 nM with A2780 ovarian cells (setting [3]), 2000 nM in the assay with A2780 ovarian cells (setting [4]), roughly 1860 nM in assay [1] and 4370 nM in assay [2].

`Cc1cc(-c2ccc(-c3cnn(C)c3)cc2)ccc1C1=NC(C)(C)C(=O)N1CC1CN(C(=O)C2(C)CC2)C1` [Compound 87, 4,4-dimethyl-2-(3-methyl-4′-(1-methyl-1H-pyrazol-4-yl)-[1,1′-biphenyl]-4-yl)-1-((1-(1-methylcyclopropanecarbonyl)azetidin-3-yl)methyl)-1H-imidazol-5(4H)-one]: the IC50 is roughly 10000 nM in the assay on A2780 ovarian cells (setting [3]), 11.7 nM in the assay on A2780 ovarian cells (setting [4]), roughly 70.8 nM in assay [1] and 178 nM in assay [2].

As for `Cn1ncc2cc(-c3ccc(C4=NC(C)(C)C(=O)N4CC4CN(C(=O)C5CC5)C4)c(F)c3)ccc21` [Compound 32, 1-((1-(cyclopropanecarbonyl)azetidin-3-yl)methyl)-2-(2-fluoro-4-(1-methyl-1H-indazol-5-yl)phenyl)-4,4-dimethyl-1H-imidazol-5(4H)-one], the IC50 was greater than 10000 nM in the assay on A2780 ovarian cells (setting [3]), 977 nM in the assay on A2780 ovarian cells (setting [4]), 1480 nM in assay [1] and 4680 nM in assay [2].

In the case of `CC1(C)N=C(c2ccc(-c3nc4ccccc4o3)cc2F)N(CC2CN(C(=O)C3CC3)C2)C1=O` [Compound 52, 2-(4-(benzo[d]oxazol-2-yl)-2-fluorophenyl)-1-((1-(cyclopropanecarbonyl)azetidin-3-yl)methyl)-4,4-dimethyl-1H-imidazol-5(4H)-one], the IC50 in the assay with A2780 ovarian cells (setting [3]) was greater than 10000 nM; in the assay with A2780 ovarian cells (setting [4]), 708 nM; in assay [1], 776 nM; in assay [2], 1290 nM.

With `CC1(C)N=C(c2ccc(-c3ccc4cnccc4c3)cc2)N(CC2CN(C(=O)C3CC3)C2)C1=O` [Compound 27, 1-((1-(cyclopropanecarbonyl)azetidin-3-yl)methyl)-2-(4-(isoquinolin-6-yl)phenyl)-4,4-dimethyl-1H-imidazol-5(4H)-one], the IC50 was greater than 10000 nM in the assay on A2780 ovarian cells (setting [3]), roughly 316 nM in the assay on A2780 ovarian cells (setting [4]), 324 nM in assay [1] and 1380 nM in assay [2].

Regarding `CC1(C)N=C(c2ccc(-c3ccc4cc(F)ccc4c3)cc2)N(CC2CN(C(=O)C3CC3)C2)C1=O` [Compound 29, 1-((1-(cyclopropanecarbonyl)azetidin-3-yl)methyl)-2-(4-(6-fluoronaphthalen-2-yl)phenyl)-4,4-dimethyl-1H-imidazol-5(4H)-one], the IC50 with A2780 ovarian cells (setting [3]) was greater than 10000 nM; in the assay on A2780 ovarian cells (setting [4]) it was 1230 nM; in assay [1], 1290 nM; in assay [2], roughly 2820 nM.

Regarding `CC1(C)N=C(c2ccc(-c3ccc4cccnc4c3)cc2F)N(C[C@@H]2CCN(C(=O)C3CC3)C2)C1=O` [Compound 49, (R)-1-((1-(cyclopropanecarbonyl)pyrrolidin-3-yl)methyl)-2-(2-fluoro-4-(quinolin-7-yl)phenyl)-4,4-dimethyl-1H-imidazol-5(4H)-one], the IC50 in the assay with A2780 ovarian cells (setting [3]) is greater than 10000 nM; with A2780 ovarian cells (setting [4]), 14.1 nM; in assay [1], roughly 24 nM; in assay [2], 200 nM.

On to `CC1(C2CC2)N=C(c2ccc(-c3ccc4occc4c3)cc2)N(C[C@@H]2CCN(C(=O)C3CC3)C2)C1=O` (mixture of isomers) [Compound 9, (4RS)-2-(4-(Benzofuran-5-yl)phenyl)-1-(((R)-1-(cyclopropanecarbonyl)pyrrolidin-3-yl)methyl)-4-cyclopropyl-4-methyl-1H-imidazol-5(4H)-one], for which the IC50 is greater than 10000 nM in the assay with A2780 ovarian cells (setting [3]), roughly 1910 nM in the assay with A2780 ovarian cells (setting [4]), 1620 nM in assay [1] and 2040 nM in assay [2].

Turning to `CC1(C)N=C(c2ccc(-c3ccc4cncnc4c3)cc2F)N(C[C@@H]2CCN(C(=O)C3CC3)C2)C1=O` [Compound 44, (R)-1-((1-(cyclopropanecarbonyl)pyrrolidin-3-yl)methyl)-2-(2-fluoro-4-(quinazolin-7-yl)phenyl)-4,4-dimethyl-1H-imidazol-5(4H)-one], the IC50 is greater than 10000 nM in the assay on A2780 ovarian cells (setting [3]), 46.8 nM in the assay on A2780 ovarian cells (setting [4]), 47.9 nM in assay [1] and 389 nM in assay [2].

On to `Cn1ncc2cc(-c3ccc(C4=NC(C)(C)C(=O)N4C[C@@H]4CCN(C(=O)C5(C)CC5)C4)c(F)c3)ccc21` [Compound 73, (R)-2-(2-fluoro-4-(1-methyl-1H-indazol-5-yl)phenyl)-4,4-dimethyl-1-((1-(1-methylcyclopropanecarbonyl)pyrrolidin-3-yl)methyl)-1H-imidazol-5(4H)-one], for which the IC50 in the assay on A2780 ovarian cells (setting [3]) was greater than 10000 nM; in the assay on A2780 ovarian cells (setting [4]), 13.5 nM; in assay [1], 18.6 nM; in assay [2], 398 nM.

In the case of `CC1(C)N=C(c2ccc(-c3cnc4ccccc4c3)cc2)N(C[C@@H]2CCN(C(=O)C3CC3)C2)C1=O` [Compound 25, (R)-1-((1-(cyclopropanecarbonyl)pyrrolidin-3-yl)methyl)-4,4-dimethyl-2-(4-(quinolin-3-yl)phenyl)-1H-imidazol-5(4H)-one], the IC50 is greater than 10000 nM with A2780 ovarian cells (setting [3]), 1170 nM in the assay on A2780 ovarian cells (setting [4]), 891 nM in assay [1] and 2880 nM in assay [2].

On to `CC1(C)N=C(c2ccc(-c3ccc4cccnc4c3)cc2)N(C[C@@H]2CCN(C(=O)C3CC3)C2)C1=O` [Compound 23], for which the IC50 was greater than 10000 nM in the assay on A2780 ovarian cells (setting [3]), 75.9 nM with A2780 ovarian cells (setting [4]), 53.7 nM in assay [1] and 219 nM in assay [2].
